A short description of data set [1]: radioactive OI and microPET of bone-seeking probe. Type of data set: in vivo, mice. The following applies: 0.5-2 h. Here is the method: Bone-seeking PET probe, Na^18F, was also used for radioactive OI and microPET imaging studies to further confirm the use of optical signals from radioactive probes for molecular imaging.
(§1) Radioactive optical imaging: In vivo radioactive OI was also performed with an IVIS Spectrum system. Wavelength-resolved spectral imaging was carried out suing a 18 narrow bands emission filters set (490-850 nm). Animals were placed in a light-tight chamber under isofluorane anesthesia. Each acquisition, with or without filters, took 1-5 min for all studies. Images were acquired and analyzed using Living Image 3.0 software (Caliper life sciences, Hopkinton, Mass.). Quantification of Radioactive OI images was corrected in accordance with radionuclides' respective physical decay properties. Optical signal was normalized to photons per second per centimeter square per steradian (p/s/cm^2/sr). Identical setting was used for in vitro Radioactive OI. For in vivo imaging study, normal mice or mice bearing either C6-fluc or PC3 (n=3 for each imaging probe) were injected via tail vein with Na^18F (5.3-5.7 MBq, 140-150 μCi), [^18F]FDG (10.4-11.3 MBq, 280-305 μCi), Na^131I (2.2-2.3 MBq, 59-61 μCi), ^90YCl3 (1.8-2.0 MBq, 48-54 μCi) or ^90Y-RGD-BBN (2.6-3.3 MBq, 70-90 μCi). For [^18F]FDG imaging study, the mice were fasted overnight prior to the experiment.

Data set [2] can be described thus: thyroid radioactive OI and SPECT/CT. To be noted: quantitative analysis of OI, 0.5-24 h. It is filed as in vivo, mice.
Description: Iodine ion can accumulate in the thyroid, and Na^123/131I has been widely used for imaging thyroid function, treating thyroid cancer and sodium iodide symporter^15-17. Therefore, we then tested the SPECT probe, Na^131I, for thyroid radioactive OI. […] High imaging signal was found in the thyroid and bladder at earlier time points postinjection (p.i.). […] At the end of OI study, the mice were sacrificed and the neck and chest areas were opened to expose the internal organs. The thyroid can be easily differentiated (FIG. 1.5d).
as §1, with “For in vivo imaging study, normal mice or mice bearing either C6-fluc or PC3 (n=3 for each imaging probe) were injected via tail vein with Na^18F (5.3-5.7 MBq, 140-150 μCi), [^18F]FDG (10.4-11.3 MBq, 280-305 μCi), Na^131I (2.2-2.3 MBq, 59-61 μCi), ^90YCl3 (1.8-2.0 MBq, 48-54 μCi) or ^90Y-RGD-BBN (2.6-3.3 MBq, 70-90 μCi). For [^18F]FDG imaging study, the mice were fasted overnight prior to the experiment.” left out

The subject of data set [3] is C6-tk cells (C6 rat glioma stably transfected with HSV-sr39tk). Put plainly: in vitro [18F]FHBG cell uptake, measured by OI and gamma counting. It is filed as cell-based. The following applies: 37° C., 15-120 min. The source says: This is mainly attributed to the ability of radioactive materials to produce low energy visible photons (1.2-3.1 eV, 400-1000 nm) associated with Cerenkov or Bremsstrahlung radiation (8-11). In this research study, we further evaluated the feasibility of using OI to monitor the nuclear reporter gene/reporter probe systems. HSV1-tk and [^18F]FHBG was thus chosen as a model system in this study. The C6 rat glioma cell line stably transfected with HSV-sr39tk plasmids (C6-tk) (12) was used, and the in vitro [^18F]FHBG uptakes in C6-tk cells were measured by both an IVIS optical imaging system (Caliper) and a gamma counter (Perkin Elmer). Finally, we performed in vivo imaging studies of the reporter gene/reporter probe using both OI and PET followed by a biodistribution study.
The in vitro [^18F]FHBG cell uptake study was performed as previously described with minor modifications (12). Briefly, C6-tk cells were seeded into 12-well plates at a density of 5×10^5 cells per well 12 h prior to the experiment. The C6 cell line without transfection was used as a negative control. […] Then the radioactivity of the cell suspension was measured in a gamma counter (Packard, Meriden, Conn.). The in vitro cell uptake results were expressed as the percentage of the applied activity with decay correction [see FIG. 2.1(b)]. […]

Data set [4] deals with C6 cell line without transfection. The experiment in a line: in vitro [18F]FHBG cell uptake, negative control cells. It is filed as cell-based, rat. To be noted: non transfected C6 cells, 37° C., 15-120 min. The method, then:
The in vitro [^18F]FHBG cell uptake study was performed as previously described with minor modifications (12). Briefly, C6-tk cells were seeded into 12-well plates at a density of 5×10^5 cells per well 12 h prior to the experiment. The C6 cell line without transfection was used as a negative control. The cells were then incubated with [^18F]FHBG ([…], 3 μCi/well) at 37° C. for 15, 30, 60 and 120 min. Tumor cells were washed 3 times with chilled phosphate buffered saline (PBS) and harvested with 0.25% trypsin/0.02% ethylenediaminetetraacetic acid (EDTA) (Invitrogen). The cell suspensions were transferred to a 96-well flat bottom black plate (Nunc) and imaged by an IVIS 200 system (Caliper). Luminescent images were taken without a filter [see FIG. 2.1(a)]. The exposure time was 5 min. Then the radioactivity of the cell suspension was measured in a gamma counter (Packard, Meriden, Conn.). The in vitro cell uptake results were expressed as the percentage of the applied activity with decay correction [see FIG. 2.1(b)]. Experiments were performed twice with triplicate samples for each time point. […] More importantly, an excellent correlation has been obtained between OI and gamma counting results [see FIG. 2.1(c), r^2>0.95]. These findings lay the foundation for further in vivo studies to validate the feasibility of using OI for monitoring the nuclear reporter gene system.

Data set [5] relates to C6-tk tumors (HSV1-tk reporter gene). Put plainly: in vivo OI and PET imaging of mice bearing C6-tk and C6 tumors. To be noted: for tumor to normal tissue (T/N) ratio: n=6. Here is the method: All animal studies were carried out in compliance with federal and local institutional rules for the conduct of animal experimentation. Mice bearing two tumors (C6-tk and C6) were then used for in vivo studies. The C6-tk (left) and C6 (right) cells were injected contra-laterally in the dorsal shoulder region of each mouse (2×10^6 cells/mouse; athymic nude mice were purchased from Charles River Laboratories, n=6). Approximately 10 days later, when tumor size reached about 1-1.5 cm in diameter, small animal PET and OI were performed using the mice and the PET probe [^18F]FHBG. Images at 1 h and 2 h were obtained by both OI and PET. Results are shown by average radiance (photon/second/cm^2/str) for OI and percentage of injected dose per gram (% ID/g) for PET based on the method previously described (13). […] The strong signals in the lower part of the mouse body [FIG. 2.2 (a)] are due to the presence of the radioactivity in the bladder. […] At 2 h post-injection, with the elimination of [^18F]FHBG, only C6-tk tumors can be clearly visualized in both imaging modalities (see FIG. 2.2).

Data set [6] is described as follows: biodistribution study by OI of organs and gamma counting. Type of data set: in vivo, mice. The method, then:
To further compare the imaging results obtained from OI and PET, biodistribution studies were conducted. Mice were sacrificed and different organs were collected at 1 h post-injection of [^18F]FHBG. OI images were obtained for these radioactive organs and quantification analysis of optical images was performed using Living Image software version 3.1 [see FIG. 2.3(a)]. Meanwhile, the radioactivity of the organs was also measured using a gamma counter after weighing, and the radioactivity uptake in the tumor and normal tissues was calculated and expressed as a percentage of the injected radioactive dose per gram of tissue (% ID/g) [see FIG. 2.3(b)].
The ratio of kidney to tumor uptake of [^18F]FHBG at 1 h was also calculated to be 2.3 vs. 1.4, for gamma counting vs. OI quantification, respectively. This discrepancy could mainly originate from the diverse optical properties of different tissues, which ultimately affects light imaging and quantification. Compared with the C6-tk tumor, the kidney contains more hemoglobin that absorbs more optical photons. Moreover, unlike high energy gamma rays, the low energy photons have very weak tissue penetrability. Light sources deeper in the tissue contribute less for the total optical signals than those closer to the surface. Therefore the kidney/tumor ratio measured by OI is lower than that obtained by gamma counting. Overall, PET has a better quantitative capability than OI. However, radioactive OI can still serve as a qualitative or semiquantitative research tool for radioactive reporter probe studies. The radioactive OI signals also have a uniquely wide wavelength of emission spectrum (9). The emissions in the near infra-red range are especially favorable for OI in living subjects. In comparison with current reporter gene imaging using BLI probes, radioactive reporter probes may offer a better option for 3D OI reconstruction.

Data set [7] in a line: radioactive OI of 90YCl3 in mice. It is filed as in vivo. To be noted: various time points p.i. The method, then:
Mice injected with ^90YCl3 (1.8-2.0 MBq each) were also imaged by an IVIS Spectrum system at different time points p.i. (FIG. 1.6e). […] The results obtained by the radioactive OI also agreed well with the previously reports which measured the in vivo behavior of ^90YCl3 by biodistribution study^21.
as §1, with “For [^18F]FDG imaging study, the mice were fasted overnight prior to the experiment.” left out

Setting [8] is: OI, 1 h after tail vein injection.

These results are taken from US10517964B2, “Optical imaging probes, optical imaging systems, methods of optical imaging, and methods of using optical imaging probes” (priority 2011, dated 2019).

Molecules are shown by their SMILES.

For `[18F-].[Na+]` [Na^18F], in data set [1], the “distribution of imaging signal” value is “High and consistence imaging signals were observed in the bone structures”.

With `[131I-].[Na+]` [Na^131I], the thyroid uptake result in data set [2] was “accumulated and maintained in the thyroid”.

With `Nc1nc2c(ncn2CCC(CO)C[18F])c(=O)[nH]1` (stereo not drawn) [[^18F]FHBG, 9-(4-^18F-fluoro-3-[hydroxymethyl]butyl)guanine], the “cell uptake of [18F]FHBG” value in data set [3] was “rapid and high uptake”; in data set [4], “very low cell uptake”. Besides, the “tracer uptake in C6-tk tumors” value in data set [5] (setting [8]) is reported as “C6-tk tumors can be clearly delineated”. Further, the “tracer uptake in control C6 tumors” value in data set [5] (setting [8]) is “minimum tracer uptakes”. The “tumor to normal tissue (T/N) ratio” value is 2.6±0.5 in data set [5] (OI, 1 h post-injection); 5.1±1.1 in data set [5] (OI, 2 h post-injection); 43.2±8.4 in data set [5] (PET, 1 h post-injection); 143.0±14.8 in data set [5] (PET, 2 h post-injection). Further, the “ratio of kidney to tumor uptake” value in data set [6] (1 h, OI quantification) was 1.4; in data set [6] (1 h, gamma counting), 2.3. Further, the “organs visible by optical imaging (biodistribution)” value in data set [6] (1 h post-injection, excised organs) was “the C6-tk tumor, the kidney, and the intestine were clearly visible”. The clearance route entry in data set [6] (kidney vs intestine signal, 1 h) is listed as “mainly through urinary excretion”.

On to `[Cl][90Y]([Cl])[Cl]` [^90YCl3], for which the tissue accumulation result in data set [7] is “accumulated in the liver as well as in the bone (femur)”.
